Test results as given in patent publication US20220281863A1, “COMPOUNDS, COMPOSITIONS AND METHODS OF TREATING DISORDERS” (Reverie Labs, Inc., priority 2019, published 2022).

These compounds were tested against T1, CDK9/CycTI (Homo sapiens, UniProt P50750) (assay: In vitro kinase assay (ADP-Glo Kinase Assay Kit), CDK9/CycTI). Conditions: 30 ng CDK9/CycTI, 30 μM CDKtide, 10 μM ATP, 2 hours at room temperature; 8 to 10-point dose response (Tier2); read-out: IC50 Score.
T1 construct: purchased Carna biosciences 04-110
T1 sequence (P50750 whole entry): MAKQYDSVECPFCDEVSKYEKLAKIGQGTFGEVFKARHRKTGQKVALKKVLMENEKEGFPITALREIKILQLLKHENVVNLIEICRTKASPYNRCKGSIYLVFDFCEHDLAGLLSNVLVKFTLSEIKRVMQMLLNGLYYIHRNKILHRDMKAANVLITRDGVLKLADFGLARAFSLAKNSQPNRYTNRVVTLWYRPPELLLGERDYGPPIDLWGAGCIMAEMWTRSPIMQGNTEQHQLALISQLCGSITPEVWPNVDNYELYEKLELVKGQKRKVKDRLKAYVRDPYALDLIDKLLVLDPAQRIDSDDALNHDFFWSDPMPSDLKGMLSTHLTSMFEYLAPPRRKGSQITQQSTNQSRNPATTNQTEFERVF
T1 sequence (O60563 whole entry partner): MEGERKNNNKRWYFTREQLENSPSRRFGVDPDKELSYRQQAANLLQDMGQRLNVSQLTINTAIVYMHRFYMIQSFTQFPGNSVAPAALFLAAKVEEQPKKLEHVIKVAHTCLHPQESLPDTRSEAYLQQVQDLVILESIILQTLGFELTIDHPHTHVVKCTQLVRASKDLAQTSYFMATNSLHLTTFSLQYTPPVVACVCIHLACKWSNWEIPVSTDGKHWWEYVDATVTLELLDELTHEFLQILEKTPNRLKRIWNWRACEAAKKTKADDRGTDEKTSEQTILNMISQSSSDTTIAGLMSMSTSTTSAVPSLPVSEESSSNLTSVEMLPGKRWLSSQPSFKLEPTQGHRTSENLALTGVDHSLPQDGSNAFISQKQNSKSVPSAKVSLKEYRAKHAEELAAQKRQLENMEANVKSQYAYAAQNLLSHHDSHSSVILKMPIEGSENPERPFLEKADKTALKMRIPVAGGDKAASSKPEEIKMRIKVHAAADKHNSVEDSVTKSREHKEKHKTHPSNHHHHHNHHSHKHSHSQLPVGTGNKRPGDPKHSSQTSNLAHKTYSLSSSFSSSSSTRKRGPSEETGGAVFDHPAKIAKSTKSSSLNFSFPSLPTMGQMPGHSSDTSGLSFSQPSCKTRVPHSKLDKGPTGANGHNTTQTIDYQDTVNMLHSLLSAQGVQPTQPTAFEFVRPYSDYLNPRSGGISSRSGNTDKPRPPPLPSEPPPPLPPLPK
Type: biochemical
Method: In vitro kinase assay was performed in white, 384-low volume plates in 5 μl reaction volume consisting of 30 ng CDK9/CycTI (Carna biosciences #04-110), 30 μM CDKtide (Signalchem #C06-58) and 10 μM ATP made in reaction buffer (40 mM Tris, pH 7.5; 20 mM MgCl2; 0.1 mg/ml BSA; 50 μM DTT) at 1 μM & 10 μM compound concentration for Tier1 assay and 8 to 10-point dose response curve for Tier2 assay. After 2 hours of incubation at room temperature, the amounts of […] in the kinase reaction were quantified using ADP-Glo™ Kinase Assay Kit (Promega #V9102). Briefly, 5 μl of ADP-Glo™ reagent was added to stop the kinase reaction and plate was incubated for 40 minutes at room temperature. Subsequently, 10 μl of Kinase Detection Reagent was added and luminescence was recorded after 30 minutes of incubation at room temperature.
The inhibition of kinase activity was determined relative to positive control (2% DMSO) and IC50 was calculated using GraphPad prism software (four parameter-variable slope equation).

Compound	IC50
CC(=O)N1CCC(C(=O)Nc2nc3ccc4cc(F)ccc4c3s2)C1 (racemic) [Compound 55, 1-acetyl-N-(7-fluoronaphtho[2,1-d]thiazol-2-yl)pyrrolidine-3-carboxamide]	0.001 to 0.1 µM
O=C(Nc1nc2ccc3cc(F)ccc3c2s1)C1CCNC1 (racemic) [Compound 83, N-(7-fluoronaphtho[2,1-d]thiazol-2-yl)pyrrolidine-3-carboxamide]	0.001 to 0.1 µM
CC(=O)N1CCNCC1C(=O)Nc1nc2ccc3cc(F)ccc3c2s1 (single isomer, unassigned) [Compound 18-a, 1-acetyl-N-(7-fluoronaphtho[2,1-d]thiazol-2-yl)piperazine-2-carboxamide]	0.1 to 0.5 µM
CC(=O)N1CCNCC1C(=O)Nc1nc2ccc3cc(F)ccc3c2s1 (single isomer, unassigned) [Compound 18-b, 1-acetyl-N-(7-fluoronaphtho[2,1-d]thiazol-2-yl)piperazine-2-carboxamide]	1 to 20 µM
CC(=O)N1CCN(C)CC1C(=O)Nc1nc2ccc3cc(F)ccc3c2s1 (single isomer, unassigned) [Compound 32, 1-acetyl-N-(7-fluoronaphtho[2,1-d]thiazol-2-yl)-4-methylpiperazine-2-carboxamide]	1 to 20 µM
CC(=O)N1CCC(C(=O)Nc2nc3ccc4cc(F)ccc4c3s2)C1 (single isomer, unassigned) [Compound 36, 1-acetyl-N-(7-fluoronaphtho[2,1-d]thiazol-2-yl)pyrrolidine-3-carboxamide]	0.001 to 0.1 µM
O=C(Nc1nc2ccc3cc(F)ccc3c2s1)C1CCNC1 (single isomer, unassigned) [Compound 37, N-(7-fluoronaphtho[2,1-d]thiazol-2-yl)pyrrolidine-3-carboxamide]	0.001 to 0.1 µM
CN1CCC(C(=O)Nc2nc3ccc4cc(F)ccc4c3s2)C1 (single isomer, unassigned) [Compound 48, N-(7-fluoronaphtho[2,1-d]thiazol-2-yl)-1-methylpyrrolidine-3-carboxamide]	0.001 to 0.1 µM
O=C(Nc1nc2ccc3cc(F)ccc3c2s1)C1CCNC1 (single isomer, unassigned) [Compound 51, N-(7-fluoronaphtho[2,1-d]thiazol-2-yl)pyrrolidine-3-carboxamide]	0.001 to 0.1 µM
CC(=O)N1CCN(C)CC1C(=O)Nc1nc2ccc3cc(F)ccc3c2s1 (single isomer, unassigned) [Compound 66, 1-acetyl-N-(7-fluoronaphtho[2,1-d]thiazol-2-yl)-4-methylpiperazine-2-carboxamide]	1 to 20 µM
CC(=O)N1CCCC[C@H]1C(=O)Nc1nc2ccc3cc(F)ccc3c2s1 (single isomer, unassigned) [Compound 67]	1 to 20 µM
CN1CCC(C(=O)Nc2nc3ccc4cc(F)ccc4c3s2)C1 (single isomer, unassigned) [Compound 70, N-(7-fluoronaphtho[2,1-d]thiazol-2-yl)-1-methylpyrrolidine-3-carboxamide]	0.001 to 0.1 µM
CC(=O)N1CCC(C(=O)Nc2nc3ccc4cc(F)ccc4c3s2)C1 (single isomer, unassigned) [Compound 82, 1-acetyl-N-(7-fluoronaphtho[2,1-d]thiazol-2-yl)pyrrolidine-3-carboxamide]	0.1 to 0.5 µM
CN1CCC(C(=O)Nc2nc3ccc4cc(F)ccc4c3s2)C1 (single isomer, unassigned) [Compound 92, N-(7-fluoronaphtho[2,1-d]thiazol-2-yl)-1-methylpyrrolidine-3-carboxamide]	0.001 to 0.1 µM
CC(C)(C)OC(=O)N1CCC[C@@H]1C(=O)Nc1nc2ccc3ccccc3c2s1 [Compound 1, tert-Butyl (R)-2-(naphtho[2,1-d]thiazol-2-ylcarbamoyl)pyrrolidine-1-carboxylate]	1 to 20 µM
O=C(Nc1nc2ccc3ccccc3c2s1)[C@H]1CCCN1 [Compound 2, (R)—N-(naphtho[2,1-d]thiazol-2-yl)pyrrolidine-2-carboxamide]	1 to 20 µM
CC(=O)N1CCC[C@@H]1C(=O)Nc1nc2ccc3ccccc3c2s1 [Compound 3, (R)-1-acetyl-N-(naphtho[2,1-d]thiazol-2-yl)pyrrolidine-2-carboxamide]	0.1 to 0.5 µM
CC(=O)N1CCC[C@@H]1C(=O)Nc1nc2ccc3cc(F)ccc3c2s1 [Compound 4, (R)-1-acetyl-N-(7-fluoronaphtho[2,1-d]thiazol-2-yl)pyrrolidine-2-carboxamide]	0.001 to 0.1 µM
CC(=O)N1CCC[C@H]1C(=O)Nc1nc2ccc3cc(F)ccc3c2s1 [Compound 5, (S)-1-acetyl-N-(7-fluoronaphtho[2,1-d]thiazol-2-yl)pyrrolidine-2-carboxamide]	1 to 20 µM
CC(=O)N1CCC[C@@H]1C(=O)Nc1nc2c(s1)-c1ccc(F)cc1CC2 [Compound 6, (R)-1-acetyl-N-(7-fluoro-4,5-dihydronaphtho[2,1-d]thiazol-2-yl)pyrrolidine-2-carboxamide]	0.5 to 1 µM
O=C1CC[C@H](C(=O)Nc2nc3ccc4cc(F)ccc4c3s2)N1 [Compound 7, (R)—N-(7-fluoronaphtho[2,1-d]thiazol-2-yl)-5-oxopyrrolidine-2-carboxamide]	0.001 to 0.1 µM
O=C1CC[C@@H](C(=O)Nc2nc3ccc4cc(F)ccc4c3s2)N1 [Compound 8, (S)—N-(7-fluoronaphtho[2,1-d]thiazol-2-yl)-5-oxopyrrolidine-2-carboxamide]	0.001 to 0.1 µM
CS(=O)(=O)N1CCC[C@@H]1C(=O)Nc1nc2ccc3cc(F)ccc3c2s1 [Compound 9, (R)—N-(7-fluoronaphtho[2,1-d]thiazol-2-yl)-1-(methylsulfonyl)pyrrolidine-2-carboxamide]	0.001 to 0.1 µM
O=C(Nc1nc2ccc3cc(F)ccc3c2s1)[C@H]1CCCO1 [Compound 10, (R)—N-(7-fluoronaphtho[2,1-d]thiazol-2-yl)tetrahydrofuran-2-carboxamide]	0.1 to 0.5 µM
O=C1CC[C@@H](C(=O)Nc2nc3ccc4ccccc4c3s2)N1 [Compound 11, (S)—N-(naphtho[2,1-d]thiazol-2-yl)-5-oxopyrrolidine-2-carboxamide]	0.001 to 0.1 µM
CC(=O)Nc1nc2ccc3cc(F)ccc3c2s1 [Compound 12, N-(7-fluoronaphtho[2,1-d]thiazol-2-yl)acetamide]	0.1 to 0.5 µM
CS(=O)(=O)N[C@@H]1CCC[C@H](C(=O)Nc2nc3ccc4cc(F)ccc4c3s2)C1 [Compound 13-a, (1S,3R)—N-(7-fluoronaphtho[2,1-d]thiazol-2-yl)-3-(methylsulfonamido)cyclohexane-1-carboxamide]	0.001 to 0.1 µM
CS(=O)(=O)N[C@@H]1CCC[C@H](C(=O)Nc2nc3c(s2)-c2ccc(F)cc2CC3)C1 [Compound 13-b, (1S,3R)—N-(7-fluoro-4,5-dihydronaphtho[2,1-d]thiazol-2-yl)-3-(methylsulfonamido)cyclohexane-1-carboxamide]	0.1 to 0.5 µM
CC(=O)N[C@@H]1CCC[C@H](C(=O)Nc2nc3ccc4cc(F)ccc4c3s2)C1 [Compound 14, (1S,3R)-3-acetamido-N-(7-fluoronaphtho[2,1-d]thiazol-2-yl)cyclohexane-1-carboxamide]	0.001 to 0.1 µM
O=C(Nc1nc2ccc3cc(F)ccc3c2s1)[C@H]1CCC[C@@H](NS(=O)(=O)C2CC2)C1 [Compound 15-a, (1S,3R)-3-(cyclopropanesulfonamido)-N-(7-fluoronaphtho[2,1-d]thiazol-2-yl)cyclohexane-1-carboxamide]	0.001 to 0.1 µM
